Results as given in publication PMC12381781, “Structural and functional insights into the selective inhibition of mutant tau aggregation by purpurin and oleocanthal in frontotemporal dementia” (Protein Science : A Publication of the Protein Society, 2025).
Like-named read-outs stand apart in the source and are kept apart here.

Columns and labels:
R2R3 (V287I) tau peptide [1] = molecular target: T1, R2R3 (V287I) tau peptide (Homo sapiens, UniProt P10636, V604I); assay: SPR titration cycle kinetics, immobilized R2R3 (V287I) peptide; format: binding
T1 sequence (P10636 592-653 V604I): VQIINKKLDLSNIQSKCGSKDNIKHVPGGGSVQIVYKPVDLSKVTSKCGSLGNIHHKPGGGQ
Procedure: SPR experiments were conducted using the Sierra® SPR‐24 Pro system (Bruker Daltonics, Bremen, Germany), featuring a gold‐coated microfluidic array (24 detection spots, 3 × 8 format). Data acquisition and kinetic analysis were performed using SPR Analyzer 4 software.
All experiments were conducted at 25°C using PBS (pH 7.4) supplemented with 0.05% Tween‐20 and 5% DMSO as the running buffer to ensure assay reproducibility. Assay components, including 96‐well microtiter plates (Part # 1862984; Burker) and Microplate and Reservoir Sealer (Part #1862985; Burker), were used for sample handling and were compatible with the Sierra SPR®‐24 Pro system (Bruker Daltonics, Billerica, MA, USA).
WT and mutant (P301L, V287I, and N279K) tau peptides were dissolved in 10 mM sodium acetate buffer (pH 5.0; Burker) and immobilized onto High‐Capacity Amine Sensor Surfaces (Part #1862614; Bruker) using the Amine Coupling Kit (Part #1862634; Bruker). The sensor surface was preconditioned with a Surface Elution Buffer (Part #1862656; Bruker Daltonics) and 0.1M HCl to remove contaminants and improve binding specificity.
The surface was activated using 400 mM 1‐ethyl‐3‐(3‐dimethylaminopropyl) carbodiimide (Burker) and 50 mM N‐hydroxysuccinimide (Burker), enabling covalent attachment of tau peptides. Unreacted binding sites were blocked with 1M ethanolamine‐HCl (pH 8.5; Burker) to minimize nonspecific interactions. For each experiment, specific sensor spots (A/B/C) on channels 1–8 were designated for tau‐analyte interactions, with corresponding reference spots on the same channel for baseline correction. DMSO calibration solutions (4.6%, 4.8%, 5%, 5.2%, and 5.4%) were prepared for double referencing to compensate for DMSO solvent effects.
PUR and OLC were prepared in PBS (pH 7.4) supplemented with 0.05% Tween‐20 and 5% DMSO. Compound interactions with tau peptides were pre‐screened using a concentration range of 1–100 μM, and subsequent binding kinetics were evaluated at optimized concentrations. For kinetic studies, PUR was tested at […], while OLC was tested at 25–100 μM using two‐fold serial dilutions. Each analyte was sequentially injected, and association and dissociation phases were monitored to determine kinetic parameters.
SPR binding kinetics were assessed using the titration cycle kinetics (TCK) assay, which included consecutive association phases followed by a single dissociation phase. Pre‐assay simulations using the Kinetic Simulator feature of SPR Analyzer 4 software were used to optimize analyte concentration ranges and association/dissociation times. A reference blank injection was included for double referencing, and a single dissociation curve was recorded for the highest analyte concentration.
Sensorgrams were analyzed using the Kinetic Titration model, which was integrated into the global kinetic fitting model of the SPR Analyzer 4 software. This approach allowed for baseline correction and improved the reliability of kinetic parameters, including the Kon, Koff, and KD.
TCK‐derived kinetic parameters were compared across multiple runs and confirmed using Multi Injection Cycle Kinetics to validate reproducibility and accuracy.

R2R3 (WT) tau peptide = molecular target: T2, R2R3 (WT) tau peptide (Homo sapiens, UniProt P10636); assay: ThT aggregation assay of monomeric R2R3 (WT) peptide; format: biochemical; settings: compound 10 μM; for ThT-stained aggregates, confocal imaging: R2R3 WT, end of ThT assay
T2 construct: Peptides spanning R2R3—including PHF6 and PHF6*; purchased ProteoGenix (Schiltigheim, France); host or cells: chemical synthesis (custom peptide)
T2 sequence (P10636 592-653 limits assumed): as the sequence (P10636 592-653 V604I) above, with I13V counted along it
Procedure: (§1) The aggregation kinetics of tau peptides were monitored using a ThT assay. A 40 μL reaction mixture containing 15 μM ThT (Sigma‐Aldrich, Cat. # T3516‐5G) and 50 μM peptide in the absence (control) or presence of 0.1 μM, 1 μM, and 10 μM PUR or OLC was prepared on ice in aggregation buffer (20 mM Tris [pH 7.4], 100 mM NaCl, 1 mM ethylenediaminetetraacetic acid [EDTA]) containing 5 μM heparin (Sigma‐Aldrich, Cat. #H4784). dithiothreitol (DTT) was excluded to avoid its differential effects on the aggregation kinetics of tau peptides containing Cys291 or Cys322 and to prevent peroxide generation by redox‐active compounds like PUR, which can lead to oxidative artifacts and false‐positive inhibition signals, as reported in our previous study (Annadurai, Malina, Salmona, et al., [2022]). This mixture was then dispensed into a clear‐bottom, black 384‐well ViewPlate (Revvity, Waltham, MA, United States; Part # 6007460) and sealed with a TopSealA‐PLUS (Revvity) to prevent evaporation.
Aggregation was monitored using EnSpire Multimode Plate Reader (Revvity) at 37°C with constant agitation (1000 rpm). […] ThT fluorescence (ThT—λ ex: 460–490 nm and λem: 500–550 nm) was recorded every 5–10 min for 48 h.
(§2) ThT fluorescence curves were fitted to a sigmoidal function in GraphPad Prism (version 10, San Diego, CA, USA) using the following equation:
Y=Top/1+expV50–X/Slope , where Y is the ThT fluorescence intensity, X is time (h), Top is the maximum fluorescence intensity, V50 is the time to reach 50% of Top, and Slope describes the steepness of the aggregation transition. Baseline fluorescence at the start of the measurements was relatively low across samples and was not separately fitted. In samples showing early increases in fluorescence, the aggregation trajectory was modeled directly without introducing an independent baseline parameter. […]
To evaluate the effect of compounds on the extent of aggregation, the AUC was calculated for each replicate ThT fluorescence curve using GraphPad Prism. […]

R2R3 (V287I) tau peptide [2] = molecular target: T1, R2R3 (V287I) tau peptide; assay: ThT aggregation assay of monomeric R2R3 (V287I) peptide; format: biochemical; settings: for ThT-stained aggregates, confocal imaging: R2R3 V287I, compound 10 μM, end of ThT assay
Procedure: as §1
Aggregation was monitored using EnSpire Multimode Plate Reader (Revvity) at 37°C with constant agitation (1000 rpm). To minimize condensation, the upper heater temperature was set to 2°C higher than the lower heater temperature. ThT fluorescence (ThT—λ ex: 460–490 nm and λem: 500–550 nm) was recorded every 5–10 min for 48 h.
as §2
Y=Top/1+expV50–X/Slope , where Y is the ThT fluorescence intensity, X is time (h), Top is the maximum fluorescence intensity, V50 is the time to reach 50% of Top, and Slope describes the steepness of the aggregation transition. Baseline fluorescence at the start of the measurements was relatively low across samples and was not separately fitted. In samples showing early increases in fluorescence, the aggregation trajectory was modeled directly without introducing an independent baseline parameter.
The V50 value obtained from each replicate was used as the aggregation t 1/2 for statistical analysis.
To evaluate the effect of compounds on the extent of aggregation, the AUC was calculated for each replicate ThT fluorescence curve using GraphPad Prism. AUC values were then normalized to the mean AUC of the untreated control group and expressed as “aggregation (% of control),” serving as an indirect and comparative measure of fibril formation.
Figure S11. Confocal imaging of ThT-stained aggregates formed in the presence of PUR and OLC (corresponding to Figure 3). […] ThT fluorescence was acquired using a Yokogawa Cell Voyager 7000S high-content imaging system equipped with a 20× objective (Ex: 460–490 nm, Em: 500–550 nm) and analyzed with Signals Image Artist (Revvity). […]

R2R3 (V287I) tau peptide [3] = molecular target: T1, R2R3 (V287I) tau peptide; assay: Atomic force microscopy of R2R3 (V287I) aggregates; format: biochemical; settings: compound 10 μM, 48 h
Procedure: Aggregates collected after 48 h of aggregation were processed for AFM analysis as described previously (Annadurai, Malina, Malohlava, et al., [2022]).

SMILES | Kd (R2R3 (V287I) tau peptide [1]) | kon (R2R3 (V287I) tau peptide [1]; SPR, R2R3 V287I) | koff (R2R3 (V287I) tau peptide [1]; SPR, R2R3 V287I, read-out: Koff) | remaining activity at 10 µM (R2R3 (WT) tau peptide; R2R3 WT 50 μM, read-out: aggregation (% of control), AUC of ThT fluorescence) | ThT-stained aggregates, confocal imaging (R2R3 (WT) tau peptide) | remaining activity at 0.1 µM (R2R3 (V287I) tau peptide [2]; R2R3 V287I 50 μM, compound 0.1 μM, read-out: aggregation (% of control), AUC of ThT fluorescence) | ThT-stained aggregates, confocal imaging (R2R3 (V287I) tau peptide [2]) | AFM morphology of aggregates (R2R3 (V287I) tau peptide [3]) | Kon (R2R3 (V287I) tau peptide [1]; SPR, R2R3 V287I) | koff (R2R3 (V287I) tau peptide [1]; SPR, R2R3 V287I) | Kd (R2R3 (V287I) tau peptide [1]; SPR, R2R3 V287I peptide immobilized, 25°C, PBS pH 7.4, read-out: KD) | aggregation (% of control), AUC of ThT fluorescence (R2R3 (V287I) tau peptide [2]; R2R3 V287I 50 μM, compound 0.1 μM)
O=C1c2ccccc2C(=O)c2c(O)c(O)cc(O)c21 [PUR, purpurin] | 4.73 µM | 42.1 M⁻¹ s⁻¹ | 0.000199 s⁻¹ | 63% | moderate reduction in fluorescence intensity | 44% | marked reduction in ThT signal | no fibrillar or aggregated structures were detected | – | – | – | –
C/C=C(/C=O)[C@@H](CC=O)CC(=O)OCCc1ccc(O)cc1 [OLC, oleocanthal] | – | – | – | – | moderate reduction in fluorescence intensity | – | marked reduction in ThT signal | no fibrillar or aggregated structures were detected | 42.24 M⁻¹ s⁻¹ | 8.69e-05 s⁻¹ | 2.06 µM | 71%
